Assay results published in patent US20240197823A1, “CATIONIC ANTIMICROBIAL PEPTIDES AND USES THEREOF” (priority 2021, published 2024).
Values after ≈ are worked out from the molar mass of the structure shown. Read-outs that look alike come from different tables or passages of the source. Positions of bridges follow the written chain, without caps; N, C: chain ends. Non-standard residues stand in square brackets, D forms with d. Residues, ends and D or L forms follow the SMILES beside them. No end group written: not given here. *: point of attachment. Heptanoyl(5-Me) = CCC(C)CCCC(=O)*; Dab = NCC[C@H](N)C(=O)O

Experiments:
[1] = system: E. Faecium; assay: MIC growth inhibition assay in MHB2; format: cell-based, Enterococcus faecium
Description: (§1) Bacteria. Bacterial clinical isolates, used for initial screening and in previous studies [Greber K E et al., 2017], were anonymously provided by the clinical microbiology laboratory of the University of Pittsburgh medical Center. The panel used for secondary screening was from CDC (Table 4), with resistance profiles data. Bacteria are stored in lock-secured −80° C. freezer and typically retrieved by obtaining single colonies on agar plates prior for subsequent liquid broth cultures. Suspensions of test bacteria were prepared from log phase of growth by diluting overnight cultures at 1:100 with fresh cation-adjusted MHB (MHB2, Millipore Sigma, USA) and incubating for additional 3-4 hours. Bacteria were spun at 3000×g for 10 minutes and the pellet resuspended in test condition media (Millipore Sigma, USA) to determine bacterial turbidity using a Den-1B densitometer (Grant Instruments, USA) at 0.5 McFarland (unit of bacterial density) corresponding to […].
(§2) Antibacterial assays. To examine antibacterial activity, this study used minor modifications of a standard growth inhibition assay endorsed by the Clinical and Laboratory Standards Institute (CLSI), as previously described [Greber K E et al., 2017]. Bacteria were incubated with each of the indicated peptides in MHB2. The bacterial cells were kept in an incubator for 18 hours at 37° C., which is linked to a robotic system that feeds a plate reader every hour with one of 8×96-well plates. This set-up allows the collection of growth kinetic data at A 570 (absorbance at 570 nm) to examine growth inhibition in real time (BioTek Instruments, USA). […] To assess bactericidal properties of the peptide, the assay was modified by using 15% fetal bovine serum (FBS, for a more physiologically relevant test condition) mixed with 25% MHB2 and 60% PBS. Bacterial cells (colony forming unit/mL or CFU/mL) were enumerated after incubating treated bacteria for 3 hours and plating serially diluted samples on broth agar medium at 37° C. overnight. […] For killing kinetics, we slightly modified the bactericidal assay to examine bacterial killing at the MBC (or 2×MBC) as a function of time for up to 3 hours. Data were analyzed using GraphPad Prism software.

[2] = system: MDR panel of gram-negative (GNB) and -positive (GPB) bacterial isolates classified as ESKAPE pathogens
Description: as §1
Antibacterial assays. To examine antibacterial activity, this study used minor modifications of a standard growth inhibition assay endorsed by the Clinical and Laboratory Standards Institute (CLSI), as previously described [Greber K E et al., 2017]. Bacteria were incubated with each of the indicated peptides in MHB2. The bacterial cells were kept in an incubator for 18 hours at 37° C., which is linked to a robotic system that feeds a plate reader every hour with one of 8×96-well plates. This set-up allows the collection of growth kinetic data at A 570 (absorbance at 570 nm) to examine growth inhibition in real time (BioTek Instruments, USA). […] To assess bactericidal properties of the peptide, the assay was modified by using 15% fetal bovine serum (FBS, for a more physiologically relevant test condition) mixed with 25% MHB2 and 60% PBS. Bacterial cells (colony forming unit/mL or CFU/mL) were enumerated after incubating treated bacteria for 3 hours and plating serially diluted samples on broth agar medium at 37° C. overnight. […] Data were analyzed using GraphPad Prism software.

[3] = system: P. aeruginosa; assay: microbe, parasite or virus in culture; conditions: Pseudomonas aeruginosa, MHB2
Description: as §1, §2

[4] = system: E. coli; assay: microbe, parasite or virus in culture
Description: as §1, §2

[5] = system: A. baumannii; assay: microbe, parasite or virus in culture
Description: as §1, §2

[6] = system: Enterobacter spp; assay: MIC growth inhibition assay in MHB2; format: cell-based, Enterobacter spp: EA (aerogenes), EC (cloacae)
Description: as §1, §2

[7] = system: K. pneumoniae; assay: MIC growth inhibition assay in MHB2; format: cell-based, klebsiella pneumoniae
Description: as §1, §2

[8] = system: S. aureus; assay: MIC growth inhibition assay in MHB2; format: cell-based, Staphylococcus aureus
Description: as §1, §2

[9] = system: MDR clinical strains of ESKAPE pathogens and E. coli provided by the CDC (AR isolates panel); assay: Advanced testing, MIC against CDC AR isolates panel; format: cell-based; conditions: colistin-resistant strains
Description: as §1, §2

CCC(C)CCCC(=O)N[C@@H](CCN)C(=O)N[C@H](C(=O)N[C@@H](CCN)C(=O)N[C@H]1CCNC(=O)[C@H]([C@@H](C)O)NC(=O)[C@H](CCN)NC(=O)[C@H](CCN)NC(=O)[C@H](CC(C)C)NC(=O)[C@@H](CC(C)C)NC(=O)[C@H](CCN)NC1=O)[C@@H](C)O (stereo partly drawn) [Colistin, colistin, reference compound] ({Heptanoyl(5-Me)}-[Dab]T[Dab][Dab][Dab][dL]L[Dab][Dab]T; lactam 4-C)
MIC ([1]; Enterococcus faecium, strain EF673, CDC, MHB2): > 16 µM
MIC ([1]; strain EF500, CDC, MHB2): >16 µM
MIC ([1]; strain EF671, CDC, MHB2): >16 µM
MIC ([1]; strain EF672, CDC, MHB2): >16 µM
mean MIC ([2]; GNB and GPB of the initial MDR panel, MHB2): lowest mean MIC
activity against the GPB strains ([2]; GPB strains of the initial MDR panel (Table 5)): inactive
MIC ([3]; strain PA216, CDC): 1 µM (≈ 1.16 µg/mL)
MIC ([3]; strain PA229, CDC): > 16 µM
MIC ([3]; strain PA230, CDC): 1 µM (≈ 1.16 µg/mL)
MIC ([3]; strain PA231, CDC): 1 µM (≈ 1.16 µg/mL)
MIC ([4]; Escherichia coli, strain Eco541, CDC, MHB2): 1 µM (≈ 1.16 µg/mL)
MIC ([4]; Escherichia coli, strain Eco543, CDC, MHB2): 8 µM (≈ 9.24 µg/mL)
MIC ([4]; Escherichia coli, strain Eco546, CDC, MHB2): 0.25 µM (≈ 0.289 µg/mL)
MIC ([4]; Escherichia coli, strain Eco549, CDC, MHB2): 1 µM (≈ 1.16 µg/mL)
MIC ([5]; Acinetobacter baumannii, CDC AR isolate AB288 (colistin resistance not confirmed)): 1 µM (≈ 1.16 µg/mL)
MIC ([5]; Acinetobacter baumannii, CDC AR isolate AB300 (colistin resistance not confirmed)): 1 µM (≈ 1.16 µg/mL)
MIC ([5]; Acinetobacter baumannii, CDC AR isolate AB301 (colistin resistance not confirmed)): 1 µM (≈ 1.16 µg/mL)
MIC ([5]; Acinetobacter baumannii, CDC AR isolate AB303 (colistin resistance not confirmed)): 0.5 µM (≈ 0.578 µg/mL)
MIC ([5]; Acinetobacter baumannii, strain AB273, CDC, MHB2): 0.5 µM (≈ 0.578 µg/mL)
MIC ([5]; Acinetobacter baumannii, strain AB274, CDC, MHB2): 0.25 µM (≈ 0.289 µg/mL)
MIC ([5]; Acinetobacter baumannii, strain AB275 (first line r9), CDC, MHB2): 0.25 µM (≈ 0.289 µg/mL)
MIC ([5]; Acinetobacter baumannii, strain AB275 (second line r10), CDC, MHB2): 0.5 µM (≈ 0.578 µg/mL)
MIC ([6]; Enterobacter, strain EA62 (aerogenes), CDC, MHB2): 2 µM (≈ 2.31 µg/mL)
MIC ([6]; Enterobacter, strain EA547 (aerogenes), CDC, MHB2): 0.25 µM (≈ 0.289 µg/mL)
MIC ([6]; Enterobacter, strain EC544 (cloacae), CDC, MHB2): 4 µM (≈ 4.62 µg/mL)
MIC ([6]; Enterobacter, strain EC545 (cloacae), CDC, MHB2): 2 µM (≈ 2.31 µg/mL)
MIC ([7]; Klebsiella pneumoniae, colistin-resistant CDC AR isolate KP46, read-out: MIC): 4 µM (≈ 4.62 µg/mL)
MIC ([7]; Klebsiella pneumoniae, colistin-resistant CDC AR isolate KP87, read-out: MIC): > 16 µM
MIC ([7]; Klebsiella pneumoniae, colistin-resistant CDC AR isolate KP125, read-out: MIC): 8 µM (≈ 9.24 µg/mL)
MIC ([7]; Klebsiella pneumoniae, colistin-resistant CDC AR isolate KP507, read-out: MIC): 16 µM (≈ 18.5 µg/mL)
MIC ([7]; Klebsiella pneumoniae, colistin-resistant CDC AR isolate KP1010, read-out: MIC): 16 µM (≈ 18.5 µg/mL)
MIC ([7]; Klebsiella pneumoniae, colistin-resistant CDC AR isolate KP1041, read-out: MIC): > 16 µM
MIC ([7]; Klebsiella pneumoniae, colistin-resistant CDC AR isolate KP1045, read-out: MIC): > 16 µM
MIC ([7]; Klebsiella pneumoniae, strain KP542, CDC, MHB2, read-out: MIC): > 16 µM
MIC ([7]; Klebsiella pneumoniae, strain KP548, CDC, MHB2, read-out: MIC): 0.25 µM (≈ 0.289 µg/mL)
MIC ([7]; Klebsiella pneumoniae, strain KP550, CDC, MHB2, read-out: MIC): 0.25 µM (≈ 0.289 µg/mL)
MIC ([7]; Klebsiella pneumoniae, strain KP552, CDC, MHB2, read-out: MIC): 0.25 µM (≈ 0.289 µg/mL)
MIC ([7]; strain KPA5, initial MDR panel (Table 5)): colistin-resistant phenotype
MIC ([8]; Staphylococcus aureus, strain SA461, CDC, MHB2): > 16 µM
MIC ([8]; strain SA462, CDC, MHB2): >16 µM
MIC ([8]; strain SA463, CDC, MHB2): >16 µM
MIC ([8]; strain SA561, CDC, MHB2): >16 µM

C[C@@H](O)[C@H]1C(=O)N2C(C(=O)O)=C(S[C@@H]3CN[C@H](C(=O)N(C)C)C3)[C@H](C)[C@H]12 [Mero]
MIC ([4]; strain Eco25922): 0.5 µM (≈ 0.192 µg/mL)
MIC ([4]; strain YDC107): 1 µM (≈ 0.383 µg/mL)
MIC ([4]; strain YDC337): 8 µM (≈ 3.07 µg/mL)
MIC ([4]; strain YDC748): 8 µM (≈ 3.07 µg/mL)
MIC ([5]; strain AB-A2): 4 µM (≈ 1.53 µg/mL)
MIC ([5]; strain AB-A3): >16 µM
MIC ([5]; strain AB-F8): 8 µM (≈ 3.07 µg/mL)
MIC ([5]; strain AB-F9): 8 µM (≈ 3.07 µg/mL)
MIC ([6]; strain EA518 (aerogenes)): >16 µM
MIC ([6]; strain EA596 (aerogenes)): 16 µM (≈ 6.14 µg/mL)
MIC ([6]; strain EC470 (cloacae)): >16 µM
MIC ([6]; strain EC560 (cloacae)): 16 µM (≈ 6.14 µg/mL)
MIC ([7]; strain KP43816, read-out: MIC): 1 µM (≈ 0.383 µg/mL)
MIC ([7]; strain KPA5, read-out: MIC): 2 µM (≈ 0.767 µg/mL)
MIC ([7]; strain KPB3, read-out: MIC): 2 µM (≈ 0.767 µg/mL)
MIC ([7]; strain KPC3, read-out: MIC): 1 µM (≈ 0.383 µg/mL)

RRVWRRVRRVWRRVRRVVRRVW [E71]
cross-resistance with colistin [9]: no cross-resistance at all
MIC [4]: 1 µM

Cc1nnc(SCC2=C(C(=O)O)N3C(=O)[C@@H](NC(=O)Cn4cnnn4)[C@H]3SC2)s1 [Cefa]
MIC ([1]; strain EF23614): >16 µM
MIC ([1]; strain EF24670): >16 µM
MIC ([1]; strain EF26215): 4 µM (≈ 1.82 µg/mL)
MIC ([1]; strain EF26692): 4 µM (≈ 1.82 µg/mL)
MIC ([8]; strain SA12212): 16 µM (≈ 7.27 µg/mL)
MIC ([8]; strain SA18710): 16 µM (≈ 7.27 µg/mL)
MIC ([8]; strain SA49775): 2 µM (≈ 0.909 µg/mL)
MIC ([8]; strain SA-US300): 8 µM (≈ 3.64 µg/mL)
